# Results: patent US20250170093A1, “ENDOPLASMIC RETICULUM PROTEIN HYOU1-BINDING COMPOUND FOR INHIBITING ENDOPLASMIC RETICULUM-MITOCHONDRIAL INTERACTION AND USES THEREOF” (UIF (University Industry Foundation), Yonsei Univeristy, priority 2023, published 2025)
# What was measured:
# HUVECs [1] = assay: Transmission electron microscopy of ER and mitochondria in HUVECs; format: cell-based, human; details: CTS 5 μM; control group 61%
# Text: First, HUVECs were imaged by transmission electron microscopy (TEM) to visualize the ER and mitochondria, and the ER-mitochondrial distance was observed. […] Increased contact between the ER and mitochondria can lead to cellular stress and dysfunction. CTS can help restore cellular homeostasis and prevent adverse effects associated with increased ER-mitochondrial interactions.
# [2] = test system: ApoE−/− mice fed a high-cholesterol diet; assay: Atherosclerosis-induced animal model (ApoE-/- mice fed a high-cholesterol diet); format: in vivo, mouse; details: 20 mg/kg intraperitoneally every 2 days for 8 weeks
# Procedure: Mouse experiments were performed in accordance with the ethical guidelines approved by the Institutional Animal Care and Use Committee of Yonsei University (IACUC-A-202208-1519-01). ApoE−/− mice were provided by Dr. Goo Taeg Oh (Ewha Womans University, Korea) and were housed in a pathogen-free system with a 12-hour light-dark cycle with free access to water and food. The mice were fed a high-cholesterol diet from 6 weeks after birth until the end of the experiment. At the end of the experiment, the mice were anesthetized with Avertin (2,2,2-tribromoethanol) and perfused with PBS through the left ventricle.
# The outer membrane fat of the aorta isolated from the sacrificed animals was removed, dissected longitudinally, and fixed on a white silicone plate. After overnight fixation with 4% PFA, aortas were stained overnight with Oil Red O and washed with PBS. The heart and liver were then harvested and fixed overnight in 4% PFA and then placed in a 30% sucrose solution. After preparing tissues and preserving through cryopreservation (OCT) or paraffin embedding, sections were prepared for histologic analysis. For analysis of atherosclerotic lesions, the bottom of the heart, including the proximal aorta, was embedded in OCT medium, stained using the Oil Red O stain, and then quantified using the Image J software. […]
# HYOU1 = biological target: T1, HYOU1 (Homo sapiens, UniProt Q9Y4L1); assay: DARTS-western analysis in HUVEC lysate; format: binding; details: dose-dependent, read-out: EC50 of resistance to degradation by Pronase
# T1 construct: endogenous in cells; host or cells: HUVEC
# T1 sequence (Q9Y4L1 33-999): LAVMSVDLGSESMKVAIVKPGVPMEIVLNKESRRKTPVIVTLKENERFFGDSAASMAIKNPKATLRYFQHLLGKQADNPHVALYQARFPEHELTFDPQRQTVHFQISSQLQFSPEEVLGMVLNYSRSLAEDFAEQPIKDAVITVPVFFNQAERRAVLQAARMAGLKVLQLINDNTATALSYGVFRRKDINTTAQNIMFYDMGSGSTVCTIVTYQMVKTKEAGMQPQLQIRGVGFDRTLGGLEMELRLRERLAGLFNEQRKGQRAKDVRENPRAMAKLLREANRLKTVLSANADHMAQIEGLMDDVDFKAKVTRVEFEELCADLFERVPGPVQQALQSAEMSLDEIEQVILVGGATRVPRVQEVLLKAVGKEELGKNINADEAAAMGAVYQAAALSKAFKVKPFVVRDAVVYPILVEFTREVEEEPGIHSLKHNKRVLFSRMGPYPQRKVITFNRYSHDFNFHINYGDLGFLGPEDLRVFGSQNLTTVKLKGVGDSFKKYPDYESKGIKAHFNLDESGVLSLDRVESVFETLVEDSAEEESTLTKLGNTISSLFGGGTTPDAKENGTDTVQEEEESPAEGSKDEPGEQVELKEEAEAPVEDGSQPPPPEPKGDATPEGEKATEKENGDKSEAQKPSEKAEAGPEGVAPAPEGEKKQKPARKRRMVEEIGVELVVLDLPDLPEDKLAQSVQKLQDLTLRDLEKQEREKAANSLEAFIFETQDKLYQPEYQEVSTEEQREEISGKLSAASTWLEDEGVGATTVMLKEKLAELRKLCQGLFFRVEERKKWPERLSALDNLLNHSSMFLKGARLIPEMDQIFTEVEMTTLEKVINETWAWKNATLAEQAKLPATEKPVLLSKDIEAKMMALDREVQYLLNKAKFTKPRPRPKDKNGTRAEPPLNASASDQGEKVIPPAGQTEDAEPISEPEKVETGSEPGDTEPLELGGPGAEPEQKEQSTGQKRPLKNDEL
# Procedure: HepG2 or HUVECs (1×10^7 cells) were lysed by homogenization in PBS buffer containing a protease/phosphatase inhibitor cocktail (½ tablet, 25 mL; Pierce), and the concentration of total proteins was determined by BCA assay. All steps were performed on ice to avoid premature protein degradation. The cell lysate (final protein concentration: 1 mg/mL, 100 μL) was aliquoted into a 1.5-mL tube and incubated with 0.01 to 10 μM CTS (in 1 μL DMSO) for 3 hours at 4° C. with gentle stirring. Pronase (non-specific protease) was then added (final concentration: 1 μg/mL) and reaction was performed for 10 minutes. After adding a 6×SDS buffer, the Pronase reaction was stopped by heating for 7 minutes.
# DARTS-western analysis was used to validate HYOU1 as a target protein of CTS in the lysate of HUVECs. […] In addition, […] to degradation by Pronase (protease) in a dose-dependent manner, with an EC50 value calculated to be about 1 μM (FIG. 5B).
# p62, LC3B-II and α-SMA = assay: Western blot of autophagy and smooth muscle cell proliferation markers in PAH cell model; format: cell-based, human; details: TGF-β-stimulated PASMCs, vs control group
# Procedure: Human pulmonary artery smooth muscle cells (PASMCs; 4-8 passages) were cultured in an SmGM2 basal medium (Lonza, CC-3181) containing 5% FBS, supplements (Lonza, CC-4149) and 1% antibiotics.
# The cells were cultured in a chamber-type cell culture slide. When they reached 70% confluence, the medium was replaced with a medium containing 0.5% FBS and the cells were incubated for 4 hours to inhibit cell proliferation. The cells were then treated with DMSO and CTS (5 μM) while simultaneously stimulating with TGF-β (5 ng/ml) for 24 hours. The level of p62, LC3 and α-SMA was confirmed by western blot.
# HUVECs [3] = assay: Mitochondrial calcium assay (Rhod-2) in HUVECs; format: cell-based, human; details: pretreated with xestospongin C, then treated with oxLDL
# Procedure: To measure calcium content in mitochondria or cytosol, HUVECs were cultured overnight at a density of 1.5×10^4 cells/well in a chamber slide (8-well) and incubated with Rhod-2/AM (2 μM) (Invitrogen, R1244) or Fluo-4/AM (1 μM) (Invitrogen, F14201), respectively, for 30 minutes at room temperature. The cells were then incubated in a calcium-free Krebs-Ringer-HEPES buffer (pH 7.4) additionally for 30 minutes for de-esterification of the dye. Images were captured in real time using an LSM980 confocal microscope (Zeiss, Oberkochen, Germany).
# In addition, it was investigated whether intracellular calcium was released from the ER and imported into the mitochondria in response to oxLDL. Specifically, it was confirmed that, when the HUVECs were treated with oxLDL along with the Rhod-2 dye, which is a marker of mitochondrial calcium, mitochondrial calcium level was increased. In contrast, when HUVECs were pretreated with xestospongin C, which is an IP3R antagonist, and then treated with oxLDL, there was no increase in the mitochondrial calcium level (FIG. 1D). This means that the oxLDL-induced increase in mitochondrial calcium is derived from the endoplasmic reticulum (ER).
# Furthermore, in order to investigate whether change in the physical coupling between the ER and mitochondria affects communications between cell organelles, Ca^2+ transport from the ER to mitochondria was examined. […]
SMILES,number of dots closer than 40 nm (ER-mitochondrial distance) (HUVECs [1]) [%],body weight [2],EC50 (HYOU1) [nM],"decrease of expression of autophagy and smooth muscle cell proliferation markers (p62, LC3B-II and α-SMA)",mitochondrial calcium level (Rhod-2) (HUVECs [3])
"C[C@H]1COC2=C1C(=O)C(=O)c1c2ccc2c1CCCC2(C)C [CTS, Cryptotanshinone]",37,did not affect,~1000,approximately 40%,
C1CCC[C@H]2CCCN3CC[C@@H](CCCCCC[C@@H]4CCCN5CC[C@@H](CC1)O[C@@H]45)O[C@@H]23 [xestospongin C],,,,,no increase
